The values that follow come from patent US20240398831A1, “COMPOSITIONS COMPRISING SMALL MOLECULE REGULATORS OF TUMOR IMMUNITY AND METHODS OF USING SAME” (Duke University, priority 2021, published 2024).

A short description of data set [1]: Uterine wet weights in ovariectomized mice. The format is in vivo, mouse. The note with it: E2 pellets 0.01 mg/60 days vs placebo. The method, then: ERα+ MCF7 cells served as a positive control. Cells were treated as either mock transfected or transfected with scrambled control or three different siRNA targeting Esr1. […] Esr1 was first normalized to Rplp0 and then Esr1 knockdown samples were normalized to a non-targeting control. RNA was collected from both cell lines after 48 hr of siRNA transfection. […] Mouse ovary served as a positive control. […] ERα+MCF7 cells served as a positive control (FIG. 5E, left). […] Data are expressed as individual data points and represented as mean±S.E.M. Significance was calculated by Student's t test or two-way ANOVA (FIGS. 5E-5F), followed by Bonferroni's multiple correction (**p<0.0001).
Ovarlectomy and subcutaneous pellet Insertion. Ovariectomy was performed as previously described (Nelson et al., Science 2013, 342, 1094-1098). Eight days prior to tumor inoculation, 7 weeks old C57BL/6J or 5 weeks old (iBP) female mice were subjected to ovariectomy or sham surgery. Mice were anesthetized in an inhalation chamber (2% Isoflurane) and maintained in half the dose of isoflurane (1%) via nose cone throughout the surgical process. Prior to surgery, mice were administered a 5 mg/kg dose of carprofen subcutaneously. […] The mouse was then removed from anesthesia and kept in a clean cage and monitored until conscious. The mice were monitored for recovery for 10 days.

The next data set has as its system CD3+ T cells. The data set can be described thus: T cells co-cultured with tumor infiltrating CD11b+ myeloid cells from iBP tumors. It counts as cell-based, mouse. The note with it: myeloid cells from E2 vs placebo treated mice, 72 hr. On the procedure: (§1) T cell proliferation assay and staining. CD3+ T cells were isolated from the spleens of C57BL/6J or P-mel mice with magnetic bead-based T cell isolation kit (Cat #19851, StemCell Technologies). T cells from naïve mice were stained with 5 μM CFSE (Cat #C34554, ThermoFisher Scientific) for 5 minutes in PBS+5% CFS with rapid vortexing following which the cells were washed twice with PBS. Stained T cells were then counted and plated in 96-well plates coated with anti-CD3 antibody (0.5 μg/mL, Cat #19851, ThermoFisher Scientific) anti-CD28 antibody (1 μg/mL, Cat #16-0281-86, Thermo Fisher Scientific) at desired density (250,000 T cells/50,000 CD11b or BMDM) in the presence of IL2 (50 ng/mL) (Cat #212-12, PeproTech). 72 hr after plating the cells were incubated with protein transport inhibitors brefeldin (Cat #00-4506-51, Thermo Fisher Scientific) and monensin (Cat #00-4505-51, Thermo Fisher Scientific) for 6 hr at a final concentration of 2 μM monensin and 3 μg/mL brefeldin after which they were collected and were processed for staining for flow cytometry.
These cells were then co-incubated with CD3^+ T cells isolated from the spleens of non-tumor bearing Pmel mice (Thy1^a/Cy Tg(TcraTcrb)8Rest/J) for 72 hr. iBP tumors express gp100 (Pmel) that can be processed and presented by professional antigen presenting cells to T cells that are specific to the antigen (gp100). Prior to coincubation, T cells were stained with the Carboxyfluorescein succinimidyl ester (CFSE) dye and activated in the presence of sub-optimal CD3/CD28. […] In this experiment, the phenotypic characteristics of the isolated myeloid cells were not defined, i.e., bone marrow derived vs resident macrophages.

The subject of data set [2] is WNT5A and TCF4 target genes. The data set is described as follows: Quantitative PCR of tumor infiltrating myeloid cells from iBP tumors. The format is in vivo, mouse. The method, then:
All target genes were normalized to Rplp0 and then siEsr1 (FIG. 14E) or DMSO (FIG. 14F) samples were normalized to siRNA control. Data are represented as mean±S.E.M. Significance was calculated by Student's t test (FIGS. 14C-14D) (*p<0.05, **p<0.01, and ***p<0.001).
Quantitative PCR of tumor Infiltrating myeloid cells. Tumor infiltrating myeloid cells were isolated from iBP tumors using a CD11b isolation kit (catalog #18970, StemCell Technologies). RNA was isolated using RNA Aqueous Micro kit (catalog #1931, Ambion) followed by cDNA synthesis using an iScript cDNA synthesis kit (Cat #170-7691). Quantitative amplification was performed using Sybr Green (Cat #1725124, Bio-Rad) and a CFX-384 Real Time PCR detection system. Primers used are listed below in TABLE 1.

For a further data set, the system named is CD4+ and CD8+ T cells. The data set can be described thus: T cell proliferation assay and staining, direct treatment of T cells in vitro. The format is cell-based, mouse. The note with it: E2 (1 nM)+fulvestrant (100 nM), 3 days.
From the text: FIG. 17C and FIG. 17H show the percentage of CD44^+CD69^+ activated CD8^+ T cells (FIG. 17C) and CD4^+ T cells (FIG. 17H) from experiments described above. FIG. 17D and FIG. 17I show the percentage of GZMB^+ activated CD8^+ T cells (FIG. 17D) and CD4^+ T cells (FIG. 17I) from experiments described above. FIG. 17E and FIG. 17J show the percentage of IFNγ^+ activated CD8^+ T cells (FIG. 17E) and CD4^+ T cells (FIG. 17J) from experiments described above. Data are expressed as individual data points and represented as mean±S.E.M. Significance was calculated by one way ANOVA.
as §1, with “72 hr after plating the cells were incubated with protein transport inhibitors brefeldin (Cat #00-4506-51, Thermo Fisher Scientific) and monensin (Cat #00-4505-51, Thermo Fisher Scientific) for 6 hr at a final concentration of 2 μM monensin and 3 μg/mL brefeldin after which they were collected and were processed for staining for flow cytometry.” left out

In the case of 17β-estradiol [E2], in data set [1], the uterine wet weights result is “increase”. Also, in the data set with CD3+ T cells, the “T cell (both CD4+ and CD8+) proliferation, CFSE dye dilution” value is “significantly inhibited”; the “expression of IFNγ in CD8+ and CD4+ T cells” value is “decreased expression”; the “expression of granzyme B (GZMB) in CD8+ and CD4+ T cells” value is “decreased expression”. In addition, the “genes in the WNT5A and TCF4 pathways” value in data set [2] (E2 compared to placebo) is reported as “differentially regulated”. In data set [2] (myeloid cells from E2 treated tumors), the “expression of Vegfa, Tgm2 and Tspo and Stat1” value is “increased expression”.

For `C[C@]12CC[C@@H]3c4ccc(O)cc4C[C@@H](CCCCCCCCC[S+]([O-])CCCC(F)(F)C(F)(F)F)[C@H]3[C@@H]1CC[C@@H]2O` (stereo partly shown) [fulvestrant], the “proliferation or cytotoxic capabilities of CD4+ or CD8+ T cells” value with CD4+ and CD8+ T cells is recorded as “did not affect”.
